In publication PMC10647090, “Structure-Based Discovery of Mouse Trace Amine-Associated Receptor 5 Antagonists” (Journal of Chemical Information and Modeling, 2023):
Entries after “also recorded” stand apart in the source; their conditions may differ. Read-outs that look alike come from different tables or passages of the source.

Tests used:
[1] = target: T1, mTAAR5 (Mus musculus, UniProt Q5QD14); conditions: cited from earlier work; for Potency pEC50 (negative log of EC50, modulating cAMP levels): mTAAR5 agonist; for Potency pIC50 (negative log of IC50, modulating cAMP levels): mTAAR5 antagonists
T1 construct: rho tag (rhodopsin-derived tag) (N); expressed in transfected cells; host or cells: HEK293, transient transfection with lipofectamine 2000; plasmid a gift from Prof; Liberles
T1 sequence (Q5QD14 1-337): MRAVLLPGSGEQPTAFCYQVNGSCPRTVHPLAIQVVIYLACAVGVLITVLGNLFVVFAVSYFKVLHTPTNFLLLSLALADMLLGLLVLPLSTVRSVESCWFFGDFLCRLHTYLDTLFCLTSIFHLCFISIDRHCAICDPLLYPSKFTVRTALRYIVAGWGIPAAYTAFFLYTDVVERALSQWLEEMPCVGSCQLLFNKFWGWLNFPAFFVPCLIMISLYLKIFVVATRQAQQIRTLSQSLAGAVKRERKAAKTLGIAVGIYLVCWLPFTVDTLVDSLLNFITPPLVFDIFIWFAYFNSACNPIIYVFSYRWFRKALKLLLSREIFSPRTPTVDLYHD

[2] = target: 5-HT1A; conditions: cited from earlier work
[3] = tested on: empty vector CTRL cells; assay: BRET cAMP assay in cells without mTAAR5 (empty vector); assay type: cell-based, human; conditions: HEK-293 cells transfected with EPAC cAMP BRET biosensor and empty vector; listed as TMA
Protocol: (§1) TAAR5 is a receptor coupled to a stimulatory G protein, and its activation evokes cAMP production. Therefore, HEK293 cells were cotransfected with mTAAR5 and cAMP BRET biosensor. Light emission changes according to the cAMP fluctuation.[60] TMA (10 μM) was used as a reference mTAAR5 agonist to evaluate the activity of the compounds throughout the BRET-based assay and tested at 10 μM for either agonistic or antagonistic activity.
Figure S6. Effect of TMA on cAMP level is mediated by mTAAR5. HEK-293 cells were transfected with
EPAC cAMP BRET biosensor with mTAAR5 or empty vector.
calculated as mean ± SEM of 3 independent experiments.
(1 picture or pasted object on this page, not shown here)

[4] = target: T1, mTAAR5; assay: BRET cAMP assay, agonistic activity; assay type: cell-based; conditions: HEK-293 cells transfected with EPAC cAMP BRET biosensor and mTAAR5; compared to saline
Protocol: as §1
Human embryonic kidney 293cells (HEK293) were maintained in Dulbecco’s modified Eagle’s, high glucose, GlutaMAX^TM medium (Gibco^TM) supplemented with 10% 331 (v/v) of FBS and 1% penicillin/streptomycin at 37 °C in a humidified atmosphere at 95% air and 5% CO2. […]
BRET experiments were performed as described previously.[60] […] For the evaluation of the agonistic activity, the plate was read immediately after the addition of the compounds for approximately 20 min. For the evaluation of the antagonistic activity, the compounds were added 5 min before the addition of the control TAAR5 agonist, TMA, and read for approximately 20 min. […] The activity of a putative mTAAR5 antagonist was evaluated in its ability to decrease or abolish the increase of the cAMP levels induced by TMA. […] Readings were collected using Tecan Infinite instrument that allows the sequential signals integration detected in the 465 to 505 nm and 515 to 555 nm windows. […]

[5] = target: T1, mTAAR5; design: method as in PMID 29713997; conditions: training set inactives; cited from earlier work
[6] = tested on: 5-HT4; conditions: cited from earlier work
[7] = target: T1, mTAAR5; assay: BRET cAMP assay, antagonistic activity against TMA; assay type: cell-based; conditions: HEK293 cells cotransfected with mTAAR5 and cAMP BRET (EPAC) biosensor; against TMA 10 μM; 3 independent experiments
Protocol: as §1
Human embryonic kidney 293cells (HEK293) were maintained in Dulbecco’s modified Eagle’s, high glucose, GlutaMAX^TM medium (Gibco^TM) supplemented with 10% 331 (v/v) of FBS and 1% penicillin/streptomycin at 37 °C in a humidified atmosphere at 95% air and 5% CO2. For the bioluminescence resonance energy transfer (BRET) experiments, cells were plated in 10 cm dishes 24 h prior to the transient transfection of 7 μg of rho-TAAR5 (a generous gift from Prof. Liberles) and 7 μg of EPAC using lipofectamine 2000 (Invitrogen). Five h after transfection, cells were plated in poly-D-lysinecoated 96-well microplates (well-assay white plate with clear bottom, Greiner) at a density of 70,000 cells per well in Opti-MEM (Gibco^TM) and then cultured for an additional 24 h. The serotonergic ligand library was purchased from Enzo (SCREEN-WELL Serotonergic ligand library).
BRET experiments were performed as described previously.[60] All the compounds were tested at the initial concentration of 10 μM. For the evaluation of the agonistic activity, the plate was read immediately after the addition of the compounds for approximately 20 min. For the evaluation of the antagonistic activity, the compounds were added 5 min before the addition of the control TAAR5 agonist, TMA, and read for approximately 20 min. For the ones that were active, a concentration–response assessment was performed by using different concentrations of the antagonist. TMA is the standard mTAAR5 agonist and induces an increase in cAMP levels. The activity of a putative mTAAR5 antagonist was evaluated in its ability to decrease or abolish the increase of the cAMP levels induced by TMA. The IC50 was then calculated by measuring the effect of the compounds against the effect of TMA at 10 μM. Readings were collected using Tecan Infinite instrument that allows the sequential signals integration detected in the 465 to 505 nm and 515 to 555 nm windows. EPAC BRET biosensor was used to monitor cAMP levels. BRET ratio is plotted in the graphs. Increased cAMP specifically reflects an increase in the BRET ratio. The activity of an antagonist was evaluated in terms of the ability to counteract the TMA increase in the BRET ratio. The acceptor/donor ratio was calculated as previously described.[108] […] The data are representative of at least 3 independent experiments and are expressed as means ± SEM.

[8] = tested on: 5-HT1A; design: method as in ref 13-14 (SI); conditions: ref 13-14 (SI); cited from earlier work
[9] = tested on: 5-HT1E; design: method as in ref 6, 11-12 (SI); conditions: 11-12 (SI); cited from earlier work
[10] = target: 5-HT1F; design: method as in ref 6, 11-12 (SI); conditions: 11-12 (SI); cited from earlier work

C[N+](C)(C)CCC(=O)c1cccc2ccccc12 [Compound 2, Trimethyl-(3-naphthalen-1-yl-3-oxopropyl)azanium]
Potency pEC50 (negative log of EC50, modulating cAMP levels) [1]: pEC50: 5.82

COc1ccccc1OCCNCC1COC(c2ccccc2)(c2ccccc2)O1 (centres unmarked) [Compound 4]
5-HT1A pKi ([2]; ref 5 (SI)): 9.22 | Potency pIC50 (negative log of IC50, modulating cAMP levels) [1]: pIC50: 3.54

CN(C)C [Compound 1, Trimethylamine]
effect on cAMP level in the absence of mTAAR5 [3]: not in empty vector CTRL cells; also recorded: no cAMP fluctuation | effect on cAMP level with mTAAR5 expressed [4]: increases cAMP levels | Potency pEC50 (negative log of EC50, modulating cAMP levels) [1]: pEC50: 5.49

N-[2-(piperidinylamino)ethyl]-4-iodobenzamide
activity at mTAAR5 in previous HTS campaigns [5]: inactive

CCN(CC)CCOC(=O)c1cc(Cl)c(N)cc1OC [Compound 8, 2-(diethylamino)ethyl-4-amino-5-chloro-2-methoxybenzoate]
5-HT4 pIC50 ([6]; ref 17 (SI)): 6.11 | IC50 [7]: 13 µM

COc1cc(N)c(Cl)cc1C(=O)OCCCN1CCCCC1 [Compound 7, 3-(piperidin-1-yl)propyl 4-amino-5-chloro-2-methoxybenzoate]
5-HT4 pIC50 ([6]; ref 15-16 (SI)): 6.31 | IC50 [7]: 4.7 µM

CCN(CC)CCNC(=O)c1cc(Cl)c(N)cc1OC [Metoclopramide]
activity at mTAAR5 in previous HTS campaigns [5]: inactive

CCCN(CCC)[C@@H]1CCc2c(OC)cccc2[C@@H]1C [(+)-UH 232]
activity at mTAAR5 in previous HTS campaigns [5]: inactive

COc1ccccc1N1CCN(CC2CCC(c3ccccc3)(c3ccccc3)O2)CC1 (centres unmarked) [Compound 3, 1-[(5,5-Diphenyloxolan-2-yl)methyl]-4-(2-methoxyphenyl)piperazine]
5-HT1A pKi ([2]; ref 10 (SI)): 7.64 | Potency pIC50 (negative log of IC50, modulating cAMP levels) [1]: pIC50: 4.36

CCCN(CCC)C1CCc2cccc(O)c2C1 (centres unmarked) [Compound 6, 7-(dipropylamino)-5,6,7,8-tetrahydronaphthalen-1-ol]
IC50 [7]: 3.8 µM | 5-HT1A pEC50 [8]: 7.24

CN1CCC(c2c[nH]c3ccc(O)cc23)CC1 [Compound 5, 3-(1-methylpiperidin-4-yl)-1H-indol-5-ol]
5-HT1E pEC50 [9]: 8.16 | IC50 [7]: 2.7 µM | 5-HT1F pKi [10]: 8.15
